# From ChEMBL document CHEMBL4483862, “Open-source discovery of chemical leads for next-generation chemoprotective antimalarials” (2018)
# Tested on: Plasmodium berghei
# Assay: Luciferase/luciferin-expressing antifolate-resistant parasites were used to infect a culture of HepG2 cells that were pre-incubated with compounds. Infected hepatocytes emit light due to the luciferase reaction. Assay results are presented as the percent inhibition of light emission compared to control. […]
# Type: functional
# Details: sporozoite; for IC90: read-out: LUCIFERASE INFECTION ASSAY - IC90
# [1] = read-out: LUCIFERASE INFECTION ASSAY - IC50
SMILES,IC90 [µM],IC50 [1] [µM],other results
Cc1cc(NC(=O)c2ccc(-c3cccc4ccccc34)s2)no1,> 10,–,"IC50 (PBLUC_HILL_SLOPE 2.6, PBLUC_R_SQUARED 0.519, read-out: LUCIFERASE INFECTION ASSAY - IC50): 5.02 µM"
Fc1ccc(-c2cc3ncnc(N4CCN(CCN5CCCC5)CC4)c3s2)cc1,> 10,–,"IC50 (PBLUC_HILL_SLOPE 17, PBLUC_R_SQUARED 0.345, read-out: LUCIFERASE INFECTION ASSAY - IC50): 9.86 µM"
C=C1N(C)c2ccc(NC(=O)c3ccccc3)cc2C1(C)C,3.46,–,"IC50 (FFLUC_HILL_SLOPE 13, FFLUC_R_SQUARED 0.522, HEPG2TOX_HILL_SLOPE 2.51, HEPG2TOX_R_SQUARED 0.97, PBLUC_HILL_SLOPE 14.6, PBLUC_R_SQUARED 0.431, read-out: LUCIFERASE INFECTION ASSAY - IC50): 2.98 µM"
Cc1ccc(S(=O)(=O)Nc2ccc(C(=O)Nc3ncccc3O)cc2)cc1C,> 10,7.38,–
CCCCc1nc2ccccc2n1CC(=O)Nc1cc(S(=O)(=O)N(C)C)ccc1OC,> 10,–,"IC50 (HEPG2TOX_HILL_SLOPE 7.99, HEPG2TOX_R_SQUARED 0.0779, PBLUC_HILL_SLOPE 2.22, PBLUC_R_SQUARED 0.125, read-out: LUCIFERASE INFECTION ASSAY - IC50): > 10 µM"
CCC(C)NC(=O)c1c(NC(=O)c2ccccc2)nc2ccc(C)cn12 (centres undefined),> 9.42,–,"IC50 (PBLUC_HILL_SLOPE 13.5, PBLUC_R_SQUARED 0.225, read-out: LUCIFERASE INFECTION ASSAY - IC50): 8.13 µM"
COc1cc(/C=C/C(=O)c2ccc(C#N)cc2)cc(Br)c1OCC(=O)N(C)C,> 10,–,"IC50 (PBLUC_HILL_SLOPE 20.1, PBLUC_R_SQUARED 0.243, read-out: LUCIFERASE INFECTION ASSAY - IC50): 9.62 µM"
Cn1nc(C(=O)NCC(c2cccs2)N2CCCC2)c2ccccc2c1=O (centres undefined),> 10,> 10,–
CCOC(=O)c1sc(N2N=C3/C(=C/c4ccccc4Cl)CCCC3C2c2ccccc2Cl)nc1C (centres undefined),> 10,–,"IC50 (FFLUC_HILL_SLOPE 1.4, FFLUC_R_SQUARED 0.297, PBLUC_HILL_SLOPE 2.64, PBLUC_R_SQUARED 0.0563, read-out: LUCIFERASE INFECTION ASSAY - IC50): 4.97 µM"
Cc1ccc2cc(CN3CCCCC3C(N)=O)c(Cl)nc2c1C (centres undefined),> 10,> 10,–
CCOC(=O)/C(=C\c1ccc(Cl)c([N+](=O)[O-])c1)C1=Nn2c(nnc2-c2cccs2)SC1,> 10,> 10,–
O=S(=O)(NCCNc1cnccn1)c1ccc(OC(F)(F)F)cc1,> 10,> 10,–
COc1cc(C(=O)NCCN(C(C)C)C(C)C)cc(OC)c1C,> 10,> 10,–
Cc1cc(C(=O)OCC(=O)NC(C)c2ccccc2)c(C)n1-c1ccccc1 (centres undefined),> 10,–,"IC50 (HEPG2TOX_HILL_SLOPE 1.33, HEPG2TOX_R_SQUARED 0.976, PBLUC_HILL_SLOPE 3.52, PBLUC_R_SQUARED 0.43, read-out: LUCIFERASE INFECTION ASSAY - IC50): 7.39 µM"
C=C(C)C[n+]1cn(C)c(-c2ccccc2)c1-c1ccccc1,> 10,–,"IC50 (HEPG2TOX_HILL_SLOPE 0.508, HEPG2TOX_R_SQUARED 0.671, PBLUC_HILL_SLOPE 5.71, PBLUC_R_SQUARED 0.631, read-out: LUCIFERASE INFECTION ASSAY - IC50): 7.55 µM"
CC(C)(C)c1ccc(C(=O)NCc2ccco2)cc1,10.4,–,"IC50 (PBLUC_HILL_SLOPE 5.38, PBLUC_R_SQUARED 0.421, read-out: LUCIFERASE INFECTION ASSAY - IC50): 6.91 µM"
O=C(NCc1ccc(S(=O)(=O)N2CCOCC2)s1)c1ccc(Cl)cc1,> 8.23,> 8.23,–
COc1ccccc1CNc1ncnc2scc(-c3ccccc3)c12,> 10,–,"IC50 (PBLUC_HILL_SLOPE 3.56, PBLUC_R_SQUARED 0.13, read-out: LUCIFERASE INFECTION ASSAY - IC50): 5.66 µM"
COc1cc(OC)cc(-c2cc3c(Nc4ccc(OC)c(OC)c4)nccc3[nH]2)c1,6.83,–,"IC50 (HEPG2TOX_HILL_SLOPE 3.11, HEPG2TOX_R_SQUARED 0.652, PBLUC_HILL_SLOPE 1.69, PBLUC_R_SQUARED 0.756, read-out: LUCIFERASE INFECTION ASSAY - IC50): 1.86 µM"
CCN(CC)S(=O)(=O)c1cc(NC(=O)C2CCN(c3ncnc4sc(C)c(C)c34)CC2)ccc1Cl,3.98,–,"IC50 (HEPG2TOX_HILL_SLOPE 2.3, HEPG2TOX_R_SQUARED 0.823, PBLUC_HILL_SLOPE 13, PBLUC_R_SQUARED 0.57, read-out: LUCIFERASE INFECTION ASSAY - IC50): 3.36 µM"
Cc1nc(-c2ccc(CCNc3ncnc4sccc34)cc2)cs1,> 10,–,"IC50 (HEPG2TOX_HILL_SLOPE 0.209, HEPG2TOX_R_SQUARED 0.388, PBLUC_HILL_SLOPE 0.293, PBLUC_R_SQUARED 0.513, read-out: LUCIFERASE INFECTION ASSAY - IC50): 0.0119 µM"

SMILES,IC90 [µM],IC50 [1] [µM],other results
O=C(Nc1nc2ccccc2[nH]1)C1CCN(c2ncc(C(F)(F)F)cc2Cl)CC1,3.95,–,"IC50 (PBLUC_HILL_SLOPE 12.1, PBLUC_R_SQUARED 0.351, read-out: LUCIFERASE INFECTION ASSAY - IC50): 3.29 µM"
N#Cc1cc(Br)c(OCc2c(F)cccc2Cl)c(Br)c1,6.23,–,"IC50 (HEPG2TOX_HILL_SLOPE 16.7, HEPG2TOX_R_SQUARED 0.384, PBLUC_HILL_SLOPE 6.36, PBLUC_R_SQUARED 0.0513, read-out: LUCIFERASE INFECTION ASSAY - IC50): 4.41 µM"
Cc1c(C(=O)Nc2ncccc2O)[nH]c2c1C(=O)CCC2,> 10,–,"IC50 (FFLUC_HILL_SLOPE 16.5, FFLUC_R_SQUARED 0.153, HEPG2TOX_HILL_SLOPE 5.63, HEPG2TOX_R_SQUARED 0.429, read-out: LUCIFERASE INFECTION ASSAY - IC50): > 10 µM"
Cc1c(NC(=O)c2cccc(Nc3nc(-c4cccs4)nc4ccccc34)c2)c(=O)n(-c2ccccc2)n1C,> 10,9.1,–
CCCn1c(-c2cccs2)nc2c(c(=O)c3ccccc3n2C)c1=O,3.69,–,"IC50 (PBLUC_HILL_SLOPE 10.5, PBLUC_R_SQUARED 0.782, read-out: LUCIFERASE INFECTION ASSAY - IC50): 3 µM"
Cc1cc(C(=O)CSC2=NCCS2)c(C)n1-c1ccc(F)cc1,> 10,–,"IC50 (PBLUC_HILL_SLOPE 0.709, PBLUC_R_SQUARED 0.459, read-out: LUCIFERASE INFECTION ASSAY - IC50): 2.87 µM"
c1ccc(CN2CCc3nc(NCc4cccc(Oc5ccccc5)c4)ncc3C2)cc1,> 7.81,> 7.81,–
O=C(Nc1nc2ccccn2c1C(=O)NC1CCCC1)c1ccc(C(F)(F)F)cc1,0.325,–,"IC50 (FFLUC_HILL_SLOPE 11.1, FFLUC_R_SQUARED 0.453, HEPG2TOX_HILL_SLOPE 0.561, HEPG2TOX_R_SQUARED 0.841, PBLUC_HILL_SLOPE 12.2, PBLUC_R_SQUARED 0.531, read-out: LUCIFERASE INFECTION ASSAY - IC50): 0.271 µM"
Cc1ccc(CSc2nnc(OC(=O)N(C)C)n2-c2cccc(Cl)c2)cc1,> 8.19,–,"IC50 (PBLUC_HILL_SLOPE 1.76, PBLUC_R_SQUARED 0.153, read-out: LUCIFERASE INFECTION ASSAY - IC50): 6.97 µM"
CC(C)Oc1ccc(Nc2cc3c(cn2)nc(NCc2ccccc2)n3C)cc1,> 10,–,"IC50 (PBLUC_HILL_SLOPE 3.16, PBLUC_R_SQUARED 0.219, read-out: LUCIFERASE INFECTION ASSAY - IC50): 5.76 µM"
C=CCN(C(=O)c1[nH]c(C)c(C(C)=O)c1C)c1nc2c(s1)CCCC2,6.45,–,"IC50 (PBLUC_HILL_SLOPE 0.713, PBLUC_R_SQUARED 0.94, read-out: LUCIFERASE INFECTION ASSAY - IC50): 0.296 µM"
Cn1c(=O)oc2ccc(S(=O)(=O)Nc3ccc4c(c3)CCCC4)cc21,> 9.21,> 9.21,–
O=C(Cn1ncc(Cl)c(Cl)c1=O)Nc1ccc(OCc2ccccc2)cc1,> 10,> 10,–
NNc1nn2c(=O)c3c(-c4ccccc4)csc3nc2c2ccccc12,> 10,–,"IC50 (FFLUC_HILL_SLOPE 12, FFLUC_R_SQUARED 0.305, PBLUC_HILL_SLOPE 10.1, PBLUC_R_SQUARED 0.389, read-out: LUCIFERASE INFECTION ASSAY - IC50): 8.61 µM"
O=C(Nc1ccc([N+](=O)[O-])cc1Br)C(Nc1ccc2c(c1)OCCO2)c1ccccc1 (centres undefined),> 10,–,"IC50 (PBLUC_HILL_SLOPE 1.35, PBLUC_R_SQUARED 0.497, read-out: LUCIFERASE INFECTION ASSAY - IC50): 2.53 µM"
COc1ccc2nc3[nH]nc(N)c3cc2c1,> 10,> 10,–
CC(C)c1ccc(Nc2ncc3c(n2)CCN(C(=O)Nc2ccc(F)c(Cl)c2)C3)cc1,> 7.5,> 7.5,–
Cc1c(C(=O)Nc2nonc2-c2ccc3c(c2)CCCC3)oc2ccccc12,> 8.84,> 8.84,–
N#Cc1ccsc1NC(=O)COC(=O)c1c2c(nc3ccccc13)/C(=C/c1cccc([N+](=O)[O-])c1)CCC2,> 10,–,"IC50 (HEPG2TOX_HILL_SLOPE 2.36, HEPG2TOX_R_SQUARED 0.622, PBLUC_HILL_SLOPE 3.04, PBLUC_R_SQUARED 0.408, read-out: LUCIFERASE INFECTION ASSAY - IC50): 7.71 µM"
CCn1c2ccc(C(=O)N/N=C/c3cn(-c4ccccc4)nc3-c3ccc(OC(F)F)cc3)cc2c[n+]1C,> 10,–,"IC50 (PBLUC_HILL_SLOPE 9.98, PBLUC_R_SQUARED 0.817, read-out: LUCIFERASE INFECTION ASSAY - IC50): 8.1 µM"
O=c1c(-c2ccc(Cl)cc2)c[nH]n1-c1cccc(C(F)(F)F)c1,> 9.74,–,"IC50 (FFLUC_HILL_SLOPE 17.4, FFLUC_R_SQUARED 0.432, HEPG2TOX_HILL_SLOPE 8.27, HEPG2TOX_R_SQUARED 0.828, PBLUC_HILL_SLOPE 3.62, PBLUC_R_SQUARED 0.841, read-out: LUCIFERASE INFECTION ASSAY - IC50): 5.59 µM"
